From patent publication US20240058332A1, “CRAC CHANNEL INHIBITOR COMPOSITIONS” (CalciMedica, Inc., priority 2017, published 2024)
In brackets after ≈: the same amount, converted by molar mass.

Key:
Format in all cases: physicochemical
[1] = Solubility of Compound A in F57, Method 4: top-down method; details: for concentration in F57 vehicle: Method 4 top-down, 2-8° C.; for strength dissolved into F57 vehicle: top-down approach; for concentration on storage: top-down, after 4 weeks' storage at 2-8° C.
Procedure: (§1) For solubility determination, a F57 sample (usually about 0.5 mL) was filtered through a 0.22 μm centrifuge filter (Costar Spin-X®+, P/N8169), the filtrate (free of any solid particle) was collected, diluted with isopropanol, and tested for Compound A concentration using the following HPLC method. Dissolution-precipitation equilibrium is reached once the measured filtrate concentration is constant, and that concentration can be regarded as the solubility.
The top-down method used high-energy homogenization to dissolve a set amount of Compound A (Form A) in the F57 vehicle to achieve supersaturation, allowing precipitation to take place over time to reach a dissolution-precipitation equilibrium in F57. The solubility of Compound A in the F57 vehicle was then determined.
(§2) The bottom-up method used a gentle mixing to slowly dissolve Compound A (Form A) in the F57 vehicle to reach the dissolution-precipitation equilibrium in F57. The solubility of Compound A in the F57 vehicle was then determined. • Top-down method: Add form A and B API, each into a separate tube containing the F57 vehicle, then apply extensive energy to each tube by homogenizer (BB, 600 sec) to obtain a clear solution, and store each tube at 2-8° C. • Bottom-up method: Add form A and B API, each into a separate tube containing the F57 vehicle, then gently shake each tube on a platform shaker at 2-8° C. • Pull sample aliquots at 1 day, 2 days, 1 week and 4 weeks to test for appearance and concentration.

[2] = Solubility of Compound A in F57, Method 4: bottom-up method; details: 2-8° C.; for concentration in F57 vehicle: Method 4 bottom-up
Procedure: as §1, §2

[3] = as above; details: for concentration in F57 vehicle: Method 4 bottom-up
[4] = DVS isotherm (hygroscopicity) of Form A
Description: The crystal size of Form A is in the range of ˜few μm to about 50 μm.

[5] = Solubility estimation of freebase Form A in 20 solvents at RT
Procedure: The solubility of N-(5-(6-chloro-2,2-difluorobenzo[d][1,3]dioxol-5-yl)pyrazin-2-yl)-2-fluoro-6-methylbenzamide freebase Form A was determined in 20 solvents at RT. These experiments were conducted by adding approximately 2 mg of sample into a 3-mL glass vial. Solvents in Table 14 were then added in 50 μL increments into the vials until the solids were dissolved or a total volume of 2 mL was reached. The solubility estimation was used to guide the solvent selection in polymorph screening. N-(5-(6-chloro-2,2-difluorobenzo[d][1,3]dioxol-5-yl)pyrazin-2-yl)-2-fluoro-6-methylbenzamide freebase Form A is soluble in MeOH, Acetic acid, Acetonitrile, Acetone, MIBK, EtOAc, IPAc, MTBE, THF, 2-MeTHF, 1,4-Dioxane, NMP, DMSO, DCM, Toluene and DMAc (>18.0 mg/mL), while it is insoluble in Heptane and H2O (<1.3 mg/mL).

[6] = Solubility of Compound A in F57, summary of all 7 methods; details: F57 emulsion, 2 °C, thermodynamic from solid, 2-8° C., all methods; read-out: solubility in F57
Description: The term “solubility” used herein is defined as Compound A concentration where Compound A has reached a dissolution-precipitation equilibrium in F57 at a selected temperature. […] On the other hand, if Compound A concentration is higher than the solubility, Compound A is expected to precipitate over time.
To investigate the causes of precipitation and determine the Compound A solubility in F57 vehicle, the following seven (7) methods were applied to accurately determine solubility of Compound A in F57: • Method 1: Formulate Compound A in F57 at varied concentrations using GMP grade of Compound A and excipients with the regular process • Method 2: Formulate Compound A in F57 by introducing Compound A into a pre-formed F57 vehicle • Method 3: Observe Compound A in the previously made batches which already had extended incubation • Method 4: Conduct “top-down” and a “bottom-up” solubility studies in F57 vehicle • Method 5: Agitate Compound A GMP batch of F57 to promote the dissolution-precipitation equilibrium • Method 6: Add extra Form B seeds to Compound A GMP batch of F57 to promote Compound A crystal growth and precipitation • Method 7: Add Form B seeds to the samples made in method 1 to promote Compound A crystal growth and precipitation
as §1
Table 40 summarizes the general conditions used in the seven methods to promote the dissolution-precipitation equilibrium. Detailed procedures are described in each method section.
The general observation and findings by all 7 methods are summarized in the table 50, according to the detailed observation and discussion pertaining to each method.

For `Cc1cccc(F)c1C(=O)Nc1cnc(-c2cc3c(cc2Cl)OC(F)(F)O3)cn1` [Form B, N-(5-(6-chloro-2,2-difluorobenzo[d][1,3]dioxol-5-yl)pyrazin-2-yl)-2-fluoro-6-methylbenzamide], the “concentration in F57 vehicle” value ([1]; 1 wk) was 2970 µg/mL, the “concentration in F57 vehicle” value ([1]; 4 wk) was 2970 µg/mL and the “concentration in F57 vehicle” value ([1]; 1 day) was 3000 µg/mL. The “concentration in F57 vehicle” value ([1]; 2 day) was 2940 µg/mL, the “strength dissolved into F57 vehicle” value [1] was 3.00 mg/mL and the concentration on storage [1] was “remained the same”. For the same compound, the “concentration in F57 vehicle” value ([2]; 1 wk) was 1630 µg/mL, the “concentration in F57 vehicle” value ([2]; 4 wk) was 1660 µg/mL and the “concentration in F57 vehicle” value ([2]; 1 day) was 750 µg/mL. The “concentration in F57 vehicle” value ([2]; 2 day) was 1140 µg/mL, the “concentration in F57 vehicle” value ([3]; 2-8° C., 7 wk) was 1800 µg/mL and the “concentration in F57 vehicle” value ([3]; 25° C., 1 wk) was 2150 µg/mL. The “concentration in F57 vehicle” value ([3]; 25° C., 4 wk) was 2040 µg/mL, the “concentration in F57 vehicle” value ([3]; 25° C., 1 day) was 1300 µg/mL and the “concentration in F57 vehicle” value ([3]; 25° C., 2 day) was 1730 µg/mL. The solubility ([3]; bottom-up, F57 vehicle, 2-8° C., in 7 weeks) was 1.8 mg/mL (≈ 4.27 mM).
With `Cc1cccc(F)c1C(=O)Nc1cnc(-c2cc3c(cc2Cl)OC(F)(F)O3)cn1` [Form A, N-(5-(6-chloro-2,2-difluorobenzo[d][1,3]dioxol-5-yl)pyrazin-2-yl)-2-fluoro-6-methylbenzamide] the hygroscopicity ([4]; DVS isotherm plot) was “not hygroscopic”, the water uptake level ([4]; DVS isotherm, at 80% RH) was less than 0.03% and the solubility ([5]; organic solvent or mixture, thermodynamic from solid, 1,4-Dioxane, read-out: Solubility) was greater than 24 mg/mL. For the same compound, the solubility ([5]; organic solvent or mixture, thermodynamic from solid, 2-MeTHF, read-out: Solubility) was greater than 26 mg/mL, the solubility ([5]; organic solvent or mixture, thermodynamic from solid, Acetic acid, read-out: Solubility) was greater than 22 mg/mL and the solubility ([5]; organic solvent or mixture, thermodynamic from solid, Acetone, read-out: Solubility) was greater than 22 mg/mL. For the same compound, the solubility ([5]; organic solvent or mixture, thermodynamic from solid, Acetonitrile, read-out: Solubility) was greater than 22 mg/mL, the solubility ([5]; organic solvent or mixture, thermodynamic from solid, DCM, read-out: Solubility) was greater than 22 mg/mL and the solubility ([5]; organic solvent or mixture, thermodynamic from solid, DMAc, read-out: Solubility) was greater than 22 mg/mL. For the same compound, the solubility ([5]; organic solvent or mixture, thermodynamic from solid, DMSO, read-out: Solubility) was greater than 20 mg/mL, the solubility ([5]; organic solvent or mixture, thermodynamic from solid, EtOAc, read-out: Solubility) was greater than 22 mg/mL and the solubility ([5]; organic solvent or mixture, thermodynamic from solid, Heptane, read-out: Solubility) was less than 1.3 mg/mL. The solubility ([5]; organic solvent or mixture, thermodynamic from solid, IPAc, read-out: Solubility) was greater than 24 mg/mL, the solubility ([5]; organic solvent or mixture, thermodynamic from solid, MIBK, read-out: Solubility) was greater than 22 mg/mL and the solubility ([5]; organic solvent or mixture, thermodynamic from solid, MTBE, read-out: Solubility) was greater than 18 mg/mL. It also gave a solubility ([5]; organic solvent or mixture, thermodynamic from solid, MeOH, read-out: Solubility) greater than 18 mg/mL, a solubility ([5]; organic solvent or mixture, thermodynamic from solid, NMP, read-out: Solubility) greater than 26 mg/mL and a solubility ([5]; organic solvent or mixture, thermodynamic from solid, THF, read-out: Solubility) greater than 20 mg/mL. The solubility ([5]; organic solvent or mixture, thermodynamic from solid, Toluene, read-out: Solubility) was greater than 22 mg/mL, the solubility ([5]; organic solvent or mixture, thermodynamic from solid, in Heptane and H2O, read-out: solubility (insoluble)) was less than 1.3 mg/mL and the solubility ([5]; organic solvent or mixture, thermodynamic from solid, in MeOH, Acetic acid, Acetonitrile, Acetone, MIBK, EtOAc, IPAc, MTBE, THF, 2-MeTHF, 1,4-Dioxane, NMP, DMSO, DCM, Toluene and DMAc, read-out: solubility (soluble)) was greater than 18 mg/mL. The solubility ([5]; water, thermodynamic from solid, H2O, read-out: Solubility) was less than 1 mg/mL, the “concentration in F57 vehicle” value ([1]; 1 wk) was 2680 µg/mL and the “concentration in F57 vehicle” value ([1]; 4 wk) was 2640 µg/mL. For the same compound, the “concentration in F57 vehicle” value ([1]; 1 day) was 2690 µg/mL, the “concentration in F57 vehicle” value ([1]; 2 day) was 2650 µg/mL and the “strength dissolved into F57 vehicle” value [1] was 2.69 mg/mL. For the same compound, the concentration on storage [1] was “remained the same”, the “concentration in F57 vehicle” value ([2]; 1 wk) was 1700 µg/mL and the “concentration in F57 vehicle” value ([2]; 4 wk) was 1710 µg/mL. For the same compound, the “concentration in F57 vehicle” value ([2]; 1 day) was 1200 µg/mL, the “concentration in F57 vehicle” value ([2]; 2 day) was 1530 µg/mL and the dissolution rate ([2]; bottom-up, emulsion vehicle) was “faster dissolution rate”. For the same compound, the solubility [6] was 1.8 to 1.9 mg/mL (≈ 4.27 to 4.5 mM), the solubility at 7 weeks ([3]; F57 emulsion vehicle, thermodynamic from solid, bottom-up, F57 vehicle, 2-8° C., in 7 weeks) was 1.8 mg/mL (≈ 4.27 mM) and the “concentration in F57 vehicle” value ([3]; 2-8° C., 7 wk) was 1850 µg/mL. The “concentration in F57 vehicle” value ([3]; 25° C., 1 wk) was 2190 µg/mL, the “concentration in F57 vehicle” value ([3]; 25° C., 4 wk) was 2170 µg/mL and the “concentration in F57 vehicle” value ([3]; 25° C., 1 day) was 2180 µg/mL. For the same compound, the “concentration in F57 vehicle” value ([3]; 25° C., 2 day) was 2240 µg/mL.
